Data reported in patent publication US11802128B2, “Azetidine and pyrrolidine PARP1 inhibitors and uses thereof” (Xinthera, Inc., priority 2021, dated 2023).

What was measured:
[1] = test system: DLD-1 parental cells; test: Cell growth inhibition assay (CellTiter-Glo cell viability, 7 days); assay type: cell-based; conditions: Homo sapiens, 168 h
In short: (§1)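 Cells were seeded at 50 (DLD-1 parental), 200 (DLD-1 BRCA2−/−) or 500 (MDA-MB-436) cells/well onto 1:3 compound dilutions, top final 10 or 30 μM. Culture ran 7 days at 37 °C, 5% CO2. ATP was read by CellTiter-Glo 2.0, and IC50 was fitted from growth inhibition.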

[2] = test system: DLD-1 BRCA2(−/−) cells; test: as above; assay type: cell-based; conditions: Homo sapiens, 168 h
In short: as §1

[3] = test system: MDA-MB-436 (mutated BRCA1) cells; test: as above; assay type: cell-based; conditions: Homo sapiens, 168 h, MDA-MB-436, 7 days
In short: as §1

[4] = biological target: PARP1 (Homo sapiens (Human), UniProt P09874); test: Biochemical fluorescent polarization (FP) assay, displacement of PARPi-FL; assay type: binding; conditions: 20 nM protein, 3 nM PARPi-FL, 4 h at room temperature
PARP1, sequence (P09874 whole entry): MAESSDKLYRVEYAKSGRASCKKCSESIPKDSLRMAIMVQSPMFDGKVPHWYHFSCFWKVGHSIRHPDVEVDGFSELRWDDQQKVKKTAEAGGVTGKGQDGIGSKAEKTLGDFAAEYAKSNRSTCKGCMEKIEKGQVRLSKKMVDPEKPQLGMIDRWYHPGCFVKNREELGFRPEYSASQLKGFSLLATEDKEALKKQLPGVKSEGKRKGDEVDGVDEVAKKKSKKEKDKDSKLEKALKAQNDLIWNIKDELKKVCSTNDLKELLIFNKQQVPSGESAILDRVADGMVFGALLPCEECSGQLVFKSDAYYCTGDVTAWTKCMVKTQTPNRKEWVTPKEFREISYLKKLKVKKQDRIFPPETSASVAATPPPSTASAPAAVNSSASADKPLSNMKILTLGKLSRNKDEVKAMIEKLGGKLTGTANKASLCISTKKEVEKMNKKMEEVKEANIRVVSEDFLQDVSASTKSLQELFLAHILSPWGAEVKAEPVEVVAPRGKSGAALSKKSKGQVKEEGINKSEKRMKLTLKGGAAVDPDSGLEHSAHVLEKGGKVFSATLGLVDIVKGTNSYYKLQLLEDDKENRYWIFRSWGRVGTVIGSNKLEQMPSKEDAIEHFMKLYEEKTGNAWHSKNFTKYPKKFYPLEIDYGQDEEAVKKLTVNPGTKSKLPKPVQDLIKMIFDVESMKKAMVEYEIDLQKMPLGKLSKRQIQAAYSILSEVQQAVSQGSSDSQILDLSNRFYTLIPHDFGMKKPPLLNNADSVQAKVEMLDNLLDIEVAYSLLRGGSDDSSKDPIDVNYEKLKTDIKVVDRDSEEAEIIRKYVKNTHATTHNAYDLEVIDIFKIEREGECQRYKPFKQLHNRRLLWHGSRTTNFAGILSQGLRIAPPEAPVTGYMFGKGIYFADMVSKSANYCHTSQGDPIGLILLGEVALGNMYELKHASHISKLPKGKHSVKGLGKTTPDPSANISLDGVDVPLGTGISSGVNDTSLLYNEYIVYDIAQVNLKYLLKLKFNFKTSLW
Description: (§2) The assay was performed utilizing the following method:
(§3) 100% DMSO was used for the high (with protein) and low (without protein) control samples. 20 nL of compound or DMSO alone was added to individual assay plate wells.
(§4) PARP1 and PARP2 protein were expressed, purified, and diluted in assay buffer containing 50 mM Tris pH 8.0, 0.001% Triton X-100, 10 mM MgCl2, 150 mM NaCl to a final concentration of 20 nM. The PARPi-FL was then added at a final concentration of 3 nM.
(§5) The assay plate is centrifuged at 1000 rpm for 1 min and incubated for 4 h at room temperature.
(§6) The fluorescent polarization is read using an Envision plate reader using the following settings: […]

[5] = biological target: PARP2 (Homo sapiens (Human), UniProt Q9UGN5); test: as above; assay type: binding; conditions: 20 nM protein, 3 nM PARPi-FL, 4 h at room temperature; read-out: IC50 FP PARP2
PARP2, sequence (Q9UGN5 whole entry): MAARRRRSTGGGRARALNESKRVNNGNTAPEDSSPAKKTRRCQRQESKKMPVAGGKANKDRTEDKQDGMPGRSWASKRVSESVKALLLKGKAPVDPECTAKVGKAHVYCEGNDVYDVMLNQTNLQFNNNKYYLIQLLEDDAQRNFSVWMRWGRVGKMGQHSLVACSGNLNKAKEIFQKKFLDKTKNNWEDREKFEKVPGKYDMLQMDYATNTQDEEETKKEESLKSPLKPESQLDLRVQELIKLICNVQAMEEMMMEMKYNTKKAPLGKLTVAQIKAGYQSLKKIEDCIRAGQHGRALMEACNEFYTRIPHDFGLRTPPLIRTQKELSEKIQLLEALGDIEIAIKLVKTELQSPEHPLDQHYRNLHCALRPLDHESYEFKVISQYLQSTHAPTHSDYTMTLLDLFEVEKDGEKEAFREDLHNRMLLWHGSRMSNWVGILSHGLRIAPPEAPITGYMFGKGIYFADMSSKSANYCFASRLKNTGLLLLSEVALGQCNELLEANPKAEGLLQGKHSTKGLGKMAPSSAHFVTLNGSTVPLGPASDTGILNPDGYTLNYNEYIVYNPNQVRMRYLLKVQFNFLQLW
Description: as §2, §3, §4, §5, §6

SMILES | EC50 [1] [nM] | EC50 [2] [nM] | EC50 [3] [nM] | IC50 [4] [nM] | IC50 [5] [nM]
CCc1cc2ncc(CN3CC[C@@H](Oc4ccc(C(=O)NC)nc4)C3)cc2[nH]c1=O [Example 2, 5-{[(3R)-1-[(7-ethyl-6-oxo-5H-1,5-naphthyridin-3-yl)methyl]pyrrolidin-3-yl]oxy}-N-methylpyridine-2-carboxamide] | > 30000 | 3.3 | 1.6 | 4.2 | > 10000
CCc1cc2ncc(CN3C[C@H](Oc4ccc(C(=O)NC)cc4)[C@H]3C)cc2[nH]c1=O [Example 64] | – | 96 | 43 | > 100 | 2600
CCc1cc2ncc(CN3C[C@H](Oc4cnc(C(=O)NC5CC5)c(F)c4)[C@H]3C)cc2[nH]c1=O [Example 66, N-cyclopropyl-5-{[(2R,3S)-1-[(7-ethyl-6-oxo-5H-1,5-naphthyridin-3-yl)methyl]-2-methylazetidin-3-yl]oxy}-3-fluoropyridine-2-carboxamide] | – | 2.1 | 1 | 3.3 | 6400
CNC(=O)c1ccc(O[C@H]2CN(Cc3cnc4cc(C(F)F)c(=O)[nH]c4c3)[C@@H]2C)cn1 [Example 70] | – | 1.3 | 1.1 | 4.1 | 2400
O=C(NC1CC1)c1ccc(OC2CN(Cc3cnc4cc(C5CC5)c(=O)[nH]c4c3)C2)cn1 [Example 73] | – | 4.8 | 2.1 | 3.6 | 1700
Cc1cc2ncc(CN3C[C@H](Oc4ccc(C(=O)NC5(C)CC5)nc4)[C@H]3C)cc2[nH]c1=O [Example 74] | – | 3.9 | 2.6 | 8.9 | 25000
C[C@@H]1[C@@H](Oc2ccc(C(=O)NC3CC3)nc2)CN1Cc1cnc2cc(C(F)F)c(=O)[nH]c2c1 [Example 75, N-cyclopropyl-5-{[(2R,3S)-1-{[7-(difluoromethyl)-6-oxo-5H-1,5-naphthyridin-3-yl]methyl}-2-methylazetidin-3-yl]oxy}pyridine-2-carboxamide] | – | 1.2 | 0.72 | 4 | 5200
C[C@@H]1[C@@H](Oc2ccc(C(=O)NC3CC3)nc2)CN1Cc1cnc2cc(Cl)c(=O)[nH]c2c1 [Example 76, 5-{[(2R,3S)-1-[(7-chloro-6-oxo-5H-1,5-naphthyridin-3-yl)methyl]-2-methylazetidin-3-yl]oxy}-N-cyclopropylpyridine-2-carboxamide] | – | 1.4 | 1.1 | 2.8 | 8700
CNC(=O)c1ccc(O[C@H]2CN(Cc3cnc4cc(Cl)c(=O)[nH]c4c3)[C@@H]2C)cn1 [Example 77] | – | 3.8 | 1.8 | 3.8 | > 100000
Cc1cc2ncc(CN3C[C@H](Oc4ccc(C(=O)NC5CC(F)(F)C5)nc4)[C@H]3C)cc2[nH]c1=O [Example 80] | – | 4.3 | 1.8 | 3.8 | 5300
Cc1cc2ncc(CN3C[C@H](Oc4ccc(C(=O)N[C@H]5C[C@H](F)C5)nc4)[C@H]3C)cc2[nH]c1=O [Example 82] | – | 3.1 | 2.1 | 4.5 | 6800
C[C@@H]1[C@@H](Oc2ccc(C(=O)NC3CC3)nc2)CN1Cc1cnc2c(c1)[nH]c(=O)c1ccoc12 [Example 84] | – | 3 | 1.4 | 8.8 | 48000
CNC(=O)c1ccc(O[C@H]2CN(Cc3ccc4nc(C)c(=O)[nH]c4c3F)[C@@H]2C)cn1 [Example 91] | – | 23 | 27 | 11 | > 100000
